In patent US20220160751A1, “METHODS OF TREATMENT OF DISEASES AND DISORDERS ASSOCIATED WITH INCREASED TET LEVEL, INCREASED H19 LEVEL, INCREASED LEVEL OF TGF SIGNALING, OR ANY COMBINATION THEREOF” (YALE UNIVERSITY, priority 2019, published 2022):

Columns and labels:
[1] = test system: UtLM and ht-UtLM leiomyoma cells; test: RT-qPCR and Western blot of gene expression in leiomyoma cells; assay type: cell-based, human
From the text: Antibodies for TET3 (GeneTex, GTX121453; used at a dilution of 1/500), TGFBR2 (Abcam, ab184948; used at a dilution of 1/1000), TSP1 (Abcam, ab85762; used at a dilution of 1/500), MED12 (Novus Biological, NB100-2357; used at a dilution of 1/500), HMGA2 (Proteintech, 20795-1-AP; used at a dilution of 1/500), GRAF1 (Cell Signaling, 8802; used at a dilution of 1/500), SPARC (Cell Signaling, 8725; used at a dilution of 1/500), COL3A1 (LS-Bio, LS-C159386; used at a dilution of 1/1000), COL4A1 (LS-Bio, LS-C100552; used at a dilution of 1/500), COL5A2 (Origene, TA809611; used at a dilution of 1/500) and GAPDH (Abcam, ab128915; used at a dilution of 1/10000) were purchased. Human H19 siRNA (siH19) and control siRNA (siCon) were previously described (Ghazal S et al., 2015, EMBO Mol Med 7:996-1003). siTET3 (Ambion, 4392420/s47239), estradiol ([…], Sigma), and progesterone ([…], Sigma) were purchased. Estradiol and progesterone were dissolved in DMSO and used at a final concentration of 10^-8M. ht-UtLM cells tested negative for mycoplasma contamination were maintained in MEM (Sigma, #M3024) supplemented with 20% fetal bovine serum, 1×MEM Vitamin Solution (Invitrogen #11120-052), 1×MEM Amino Acids Solution (Invitrogen, #11130-051), and 1×MEM Non-Essential Amino Acids (Invitrogen #11140-050). Primary UtLM-1 and UtLM-2 cells were maintained in DMEM (Gibco, #10567014) supplemented with 20% fetal bovine serum, and 1% penicillin/streptomycin, 1% amphotericin B. All cells were transfected in a 24-well plate scale. To prepare siRNA transfection solution for each well, 10 pmol (5 pmol for primary cells) of siCon, siH19, or siTET3 were mixed with 25 μl of OPTI-MEM by gentle pipetting. In parallel, 1 μl of Lipofectamine 3000 was mixed with 25 μl of OPTI-MEM. Following 5 min of incubation at room temperature, the two were mixed by gentle inverting and incubated for 10 min at room temperature to allow siRNA/lipid complexes to form. At the end of incubation, the 50 μl of transfection solution was used to re-suspend the cell pellet (3×10^4 cells). After incubation at room temperature for 10 min, growth medium was added at a ratio of 1:9 (1 volume of transfection solution/9 volumes of growth medium), and the cell suspension was transferred to a new culture dish. After overnight incubation in a tissue culture incubator, the medium was replaced with fresh growth medium. For iLet 7 rescue experiments, 10 pmol of siCon/siH19 and 10 pmol of iCon/iLet7 were used for each well of 3×10^4 cells. RNA, genomic DNA, and protein were extracted and analyzed at the indicated time points following transfection.

[2] = test system: LX-2 human hepatic stellate cells; test: qPCR and immunoblotting of gene expression in LX-2 cells; assay type: cell-based
Procedure: LX-2 human hepatic stellate cells (Yale Liver Center) were maintained in DMEM (Gibco, 11965-092) supplemented with 10% heat-inactivated fetal bovine serum (Gibco, 26140-079) and 1% PS (penicillin and streptomycin) at 37° C. in 5% humidified CO2 tissue culture incubator. Generally, cells were plated and transfected in a 24-well plate scale. For transfection with siRNA, let-7, or iLet7, 10 pmol of siTET3 (or siCon), let-7 (or miCon), or iLet7 (iCon) were mixed with 25 μl of OPTI-MEM (Gibco, 31985-070) by gentle pipetting. In parallel, 1 μl of Lipofectamine 3000 (ThermoFisher Scientific, L3000015) was mixed with 25 μl of OPTI-MEM. Then, the contents from the two tubes were mixed by gentle pipetting. After incubation for 5 min at RT, the resulting 50 μl solution was used to resuspend cell pellet (5×10^4 cells). After incubation at RT for 10 min, 450 μl of growth medium was added and the cell suspension was transferred into one well of a 24-well plate. For transfection with TET3-expression plasmid pTET3 (pcDNA-Flag-Tet3, Addgene plasmid #60940, (30)) or control vector, 5×10^4 cells per well were seeded in a 24-well plate the night before transfection. The next day, 0.75 μg of pTET3 (or Vec) were mixed with 1 μl of P3000 in 25 μl of OPTI-MEM by gentle pipetting. In parallel, 0.5 μl of Lipofectamine 3000 were mixed with 25 μl of OPTI-MEM. The contents from the two tubes were combined by gentle pipetting and incubated for 5 min at RT. The resulting 50 μl of transfection solution was added to each well of cells seeded in a 24-well plate the night before and from which the growth medium had been removed. After 6 h of incubation in a tissue culture incubator, 500 μl of growth medium were added to each well of cells. For TGF-β1 (Sigma, USA) treatment experiments, transfected cells were incubated in 500 μl of serum-free DMEM containing 5 ng/mL TGF-β1 (diluted with HCl) or HCl (as control) for 24 h or 48 h as indicated.
Total RNA was extracted from cultured cells or liver tissue samples using PureLink RNA Mini Kit (Ambion, 12183018A). 0.8 μg of total RNA was reverse transcribed to cDNA in a reaction volume of 10 μl using PrimeScript RT Reagent Kit (TAKARA, RR037A). Quantitative real-time PCR reactions were carried out using iQSYBRGreen (Bio-Rad) in a Bio-Rad iCycler. Gene expression levels were normalized against housekeeping genes HPRT1 and RPLP0.
For liver tissue samples, 5-10 mg of tissues were homogenized by sonication (Qsonica, Model Q125) in 150 μl of 2×SDS-sample buffer. Samples were immediately heated at 100° C. for 3 min with occasional vertexing. Then, 100 μl of 2×SDS-sample buffer was added to each sample and the 250 μl of tissue lysate were further homogenized by sonication and heated again at 100° C. for 3-5 min with vertexing once every 15 sec. Samples (further diluted at 1:1 with 2×SDS-sample buffer before loading) were loaded 5-10 μl per well onto a 4-15% gradient SDS gel, followed by Western blot analysis. Image J was used to quantify the protein bands.

## siTET3: TET3-specific siRNA (human), Ambion 4392420/s47239 (sense CAGCAACUCCUAGAACUGATT; antisense UCAGUUCUAGGAGUUGCUGGA; chemistry not given here)
[1]; UtLM cells, vs siCon
  protein levels of MED12, TGFBR2, TSP1, GRAF1, SPARC, COL5A2, COL4A1, COL3A1 (Western blot): all decreased
[1]; ht-UtLM cells
  MED12 expression: lack of effects
[1]; primary human leiomyoma cells and ht-UtLM, 48 h, vs siCon
  mRNA expression of TET3, MED12, TGFBR2, TSP1, GRAF1, SPARC, COL3A1, COL4A1 and COL5A2: results similar to those of H19 knockdown were obtained
[2]; 48 h post-transfection, vs siCon or Vec
  expression of TGFB1, TSP1 and TGFBR2 (mRNA and protein): decreased expression of TGFB1, TSP1 and TGFBR2
[2]; TET3 siRNA 24 h, then TGF-β1 5 ng/mL 24 h
  TGF-β1-induced TGF-β signaling and profibrotic gene expression: the effects were no longer observed
